Results from publication PMC9917560, “Design, Synthesis and Antimicrobial Evaluation of New N-(1-Hydroxy-1,3-dihydrobenzo[c][1,2]oxaborol-6-yl)(hetero)aryl-2-carboxamides as Potential Inhibitors of Mycobacterial Leucyl-tRNA Synthetase” (International Journal of Molecular Sciences, 2023).
Values after ≈ are worked out from the molar mass of the structure shown. Like-named read-outs stand apart in the source and are kept apart here.

Tests used:
[1] = test system: Trichophyton interdigitale CCM 8377 (ATCC 9533); test: Antifungal microdilution broth (EUCAST); type: cell-based; conditions: Trichophyton interdigitale, read-out: MIC Trichophyton interdigitale
HepG2 cell line = test: Cytotoxicity screening, CellTiter 96 assay; conditions: for IC50: Homo sapiens, HepG2, 24 h, read-out: IC50 HepG2; for toxicity to HepG2 up to highest tested concentration: tested up to 500 µM (2, 3), 250 µM (12, 17), 100 µM (6, 7, 11) because of solubility
[2] = test system: Mycobacterium tuberculosis H37Ra ITM-M006710 (ATCC 9431); test: Antimycobacterial microdilution (resazurin) vs Mtb H37Ra; type: cell-based
[3] = test system: Pseudomonas aeruginosa CCM 3955 (ATCC 27853); test: Antibacterial microdilution broth (EUCAST); type: cell-based; conditions: read-out: MIC Pseudomonas aeruginosa
[4] = test system: Mycobacterium kansasii DSM 44,162 (ATCC 12478); test: Antimycobacterial microdilution (resazurin) vs M. kansasii; type: cell-based; conditions: read-out: MIC M. kansasii
[5] = test system: Candida albicans CCM 8320 (ATCC 24433); test: Antifungal microdilution broth (EUCAST); type: cell-based; conditions: Candida albicans, read-out: MIC Candida albicans
[6] = test system: Staphylococcus epidermidis CCM 4418 (ATCC 12228); test: Antibacterial microdilution broth (EUCAST); type: cell-based; conditions: read-out: MIC Staphylococcus epidermidis
[7] = test system: Mycobacterium avium DSM 44,156 (ATCC 25291); test: Antimycobacterial microdilution (resazurin) vs M. avium; type: cell-based; conditions: Mycobacterium avium
[8] = test system: Aspergillus fumigatus ATCC 204305; test: Antifungal microdilution broth (EUCAST); type: cell-based; conditions: Aspergillus fumigatus, ATCC204305, read-out: MIC Aspergillus fumigatus
[9] = test system: methicillin-resistant Staphylococcus aureus subsp. aureus (MRSA) CCM 4750 (ATCC 43300); test: microbe, parasite or virus in culture; type: cell-based; conditions: read-out: MIC Methicillin-resistant Staphylococcus aureus subsp. aureus
[10] = test system: Staphylococcus aureus subsp. aureus CCM 4223 (ATCC 29213); test: Antibacterial microdilution broth (EUCAST); type: cell-based; conditions: read-out: MIC Staphylococcus aureus subsp. aureus
[11] = test system: Acinetobacter baumannii DSM 30007 (ATCC 19606); test: Antibacterial microdilution broth (EUCAST); type: cell-based; conditions: read-out: MIC Acinetobacter baumannii
[12] = test system: Enterococcus faecalis CCM 4224 (ATCC 29212); test: Antibacterial microdilution broth (EUCAST); type: cell-based; conditions: read-out: MIC Enterococcus faecalis
[13] = test system: Candida krusei CCM 8271 (ATCC 6258); test: Antifungal microdilution broth (EUCAST); type: cell-based; conditions: Pichia kudriavzevii, read-out: MIC Candida krusei
[14] = test system: Aspergillus flavus CCM 8363; test: Antifungal microdilution broth (EUCAST); type: cell-based; conditions: Aspergillus flavus, CCM8363, read-out: MIC Aspergillus flavus
[15] = test system: Klebsiella pneumoniae CCM 4415 (ATCC 10031); test: Antibacterial microdilution broth (EUCAST); type: cell-based; conditions: Klebsiella pneumoniae, read-out: MIC Klebsiella pneumoniae
[16] = test system: Candida parapsilosis CCM 8260 (ATCC 22019); test: Antifungal microdilution broth (EUCAST); type: cell-based; conditions: Lodderomyces parapsilosis, read-out: MIC Candida parapsilosis
[17] = test system: Mycolicibacterium aurum DSM 43,999 (ATCC 23366); test: Antimycobacterial microdilution (resazurin) vs M. aurum; type: cell-based; conditions: Middlebrook 7H9, resazurin, read-out: MIC M. aurum
[18] = test system: Candida tropicalis CCM 8264 (ATCC 750); test: Antifungal microdilution broth (EUCAST); type: cell-based; conditions: read-out: MIC Candida tropicalis
[19] = test system: Mycobacterium tuberculosis H37Rv CNCTC My 331/88 (ATCC 27294); test: Microplate Alamar Blue assay vs Mtb H37Rv; type: cell-based; conditions: Mycobacterium tuberculosis
[20] = test system: Escherichia coli CCM 3954 (ATCC 25922); test: Antibacterial microdilution broth (EUCAST); type: cell-based; conditions: Escherichia coli, read-out: MIC Escherichia coli
[21] = test system: Mycolicibacterium smegmatis DSM 43,465 (ATCC 607); test: Antimycobacterial microdilution (resazurin) vs M. smegmatis; type: cell-based; conditions: Middlebrook 7H9, resazurin, read-out: MIC M. smeg.
[22] = test system: Lichtheimia corymbifera CCM 8077; test: Antifungal microdilution broth (EUCAST); type: cell-based; conditions: Lichtheimia corymbifera, CCM8077, read-out: MIC Lichtheimia corymbifera
[23] = Middlebrook 7H9, resazurin, recalculated from µg/mL, read-out: MIC Mtb H37Ra
[24] = Middlebrook 7H9, resazurin, read-out: MIC M. avium
[25] = pH 6.6, MABA, Middlebrook 7H9 pH 6.6, recalculated from µg/mL, read-out: MIC Mtb H37Rv

SMILES: Cc1cnc(C(=O)Nc2ccc3c(c2)B(O)OC3)cn1 [Compound 2, N-(1-hydroxy-1,3-dihydrobenzo[c][1,2]oxaborol-6-yl)-5-methylpyrazine-2-carboxamide]
- melting point: 215 to 216.1 °C
- MIC ([1]; 72h incubation): > 500 µM
- MIC ([1]; 120h incubation): > 500 µM
- IC50 (HepG2 cell line): > 500 µM
- toxicity to HepG2 up to highest tested concentration (HepG2 cell line): non-toxic
- MIC [2, 23]: 58.1 µM (≈ 15.6 µg/mL)
- MIC ([3]; 24h incubation): > 500 µM
- MIC ([3]; 48h incubation): > 500 µM
- MIC [4]: 58.1 µM (≈ 15.6 µg/mL)
- MIC ([5]; 24h incubation): > 500 µM
- MIC ([5]; 48h incubation): > 500 µM
- MIC ([6]; 24h incubation): 500 µM (≈ 135 µg/mL)
- MIC ([6]; 48h incubation): 500 µM (≈ 135 µg/mL)
- MIC [7, 24]: 58.1 µM (≈ 15.6 µg/mL)
- MIC ([8]; 24h incubation): > 500 µM
- MIC ([8]; 48h incubation): > 500 µM
- MIC ([9]; 24 h): > 500 µM
- MIC ([9]; 48 h): > 500 µM
- MIC ([10]; 24h incubation): 250 µM (≈ 67.3 µg/mL)
- MIC ([10]; 48h incubation): 250 µM (≈ 67.3 µg/mL)
- MIC ([11]; 24h incubation): > 500 µM
- MIC ([11]; 48h incubation): > 500 µM
- MIC ([12]; 24h incubation): > 500 µM
- MIC ([12]; 48h incubation): > 500 µM
- MIC ([13]; 24h incubation): > 500 µM
- MIC ([13]; 48h incubation): > 500 µM
- MIC ([14]; 24h incubation): > 500 µM
- MIC ([14]; 48h incubation): > 500 µM
- MIC ([15]; 24h incubation): > 500 µM
- MIC ([15]; 48h incubation): > 500 µM
- MIC ([16]; 24h incubation): > 500 µM
- MIC ([16]; 48h incubation): > 500 µM
- MIC [17]: 14.5 µM (≈ 3.91 µg/mL)
- MIC ([18]; 24h incubation): > 500 µM
- MIC ([18]; 48h incubation): > 500 µM
- MIC [19, 25]: 46.5 µM (≈ 12.5 µg/mL)
- MIC ([20]; 24h incubation): > 500 µM
- MIC ([20]; 48h incubation): > 500 µM
- MIC [21]: 29 µM (≈ 7.81 µg/mL)
- MIC ([22]; 24h incubation): > 500 µM
- MIC ([22]; 48h incubation): > 500 µM

SMILES: Cc1nccnc1C(=O)Nc1ccc2c(c1)B(O)OC2 [Compound 3, N-(1-hydroxy-1,3-dihydrobenzo[c][1,2]oxaborol-6-yl)-3-methylpyrazine-2-carboxamide]
- melting point: 262.9 to 264 °C
- MIC ([1]; 72h incubation): > 500 µM
- MIC ([1]; 120h incubation): > 500 µM
- IC50 (HepG2 cell line): > 500 µM
- toxicity to HepG2 up to highest tested concentration (HepG2 cell line): non-toxic
- MIC ([2]; read-out: MIC Mtb H37Ra, Middlebrook 7H9, resazurin, recalculated from µg/mL): > 1850 µM
- MIC ([3]; 24h incubation): > 500 µM
- MIC ([3]; 48h incubation): > 500 µM
- MIC ([4]; Middlebrook 7H9, resazurin): 58.1 µM (≈ 15.6 µg/mL)
- MIC ([5]; 24h incubation): > 500 µM
- MIC ([5]; 48h incubation): > 500 µM
- MIC ([6]; 24h incubation): > 500 µM
- MIC ([6]; 48h incubation): > 500 µM
- MIC ([7]; read-out: MIC M. avium, Middlebrook 7H9, resazurin): > 1850 µM
- MIC ([8]; 24h incubation): > 500 µM
- MIC ([8]; 48h incubation): > 500 µM
- MIC ([9]; 24 h): > 500 µM
- MIC ([9]; 48 h): > 500 µM
- MIC ([10]; 24h incubation): > 500 µM
- MIC ([10]; 48h incubation): > 500 µM
- MIC ([11]; 24h incubation): > 500 µM
- MIC ([11]; 48h incubation): > 500 µM
- MIC ([12]; 24h incubation): > 500 µM
- MIC ([12]; 48h incubation): > 500 µM
- MIC ([13]; 24h incubation): > 500 µM
- MIC ([13]; 48h incubation): > 500 µM
- MIC ([14]; 24h incubation): > 500 µM
- MIC ([14]; 48h incubation): > 500 µM
- MIC ([15]; 24h incubation): > 500 µM
- MIC ([15]; 48h incubation): > 500 µM
- MIC ([16]; 24h incubation): > 500 µM
- MIC ([16]; 48h incubation): > 500 µM
- MIC [17]: 14.5 µM (≈ 3.91 µg/mL)
- MIC ([18]; 24h incubation): > 500 µM
- MIC ([18]; 48h incubation): > 500 µM
- MIC ([19]; pH 6.6, read-out: MIC Mtb H37Rv, MABA, Middlebrook 7H9 pH 6.6, recalculated from µg/mL): 92.9 µM (≈ 25 µg/mL)
- MIC ([20]; 24h incubation): > 500 µM
- MIC ([20]; 48h incubation): > 500 µM
- MIC [21]: 14.5 µM (≈ 3.91 µg/mL)
- MIC ([22]; 24h incubation): > 500 µM
- MIC ([22]; 48h incubation): > 500 µM

SMILES: Nc1nccnc1C(=O)Nc1ccc2c(c1)B(O)OC2 [Compound 6, 3-amino-N-(1-hydroxy-1,3-dihydrobenzo[c][1,2]oxaborol-6-yl)pyrazine-2-carboxamide]
- melting point: 246.6 to 249.4 °C
- MIC ([1]; 72h incubation): > 500 µM
- MIC ([1]; 120h incubation): > 500 µM
- IC50 (HepG2 cell line): > 100 µM
- toxicity to HepG2 up to highest tested concentration (HepG2 cell line): non-toxic
- MIC [2, 23]: > 1850 µM
- MIC ([3]; 24h incubation): > 500 µM
- MIC ([3]; 48h incubation): > 500 µM
- MIC [4]: > 1850 µM
- MIC ([5]; 24h incubation): > 500 µM
- MIC ([5]; 48h incubation): > 500 µM
- MIC ([6]; 24h incubation): > 500 µM
- MIC ([6]; 48h incubation): > 500 µM
- MIC [7, 24]: > 1850 µM
- MIC ([8]; 24h incubation): > 500 µM
- MIC ([8]; 48h incubation): > 500 µM
- MIC ([9]; 24 h): > 500 µM
- MIC ([9]; 48 h): > 500 µM
- MIC ([10]; 24h incubation): > 500 µM
- MIC ([10]; 48h incubation): > 500 µM
- MIC ([11]; 24h incubation): > 500 µM
- MIC ([11]; 48h incubation): > 500 µM
- MIC ([12]; 24h incubation): > 500 µM
- MIC ([12]; 48h incubation): > 500 µM
- MIC ([13]; 24h incubation): > 500 µM
- MIC ([13]; 48h incubation): > 500 µM
- MIC ([14]; 24h incubation): > 500 µM
- MIC ([14]; 48h incubation): > 500 µM
- MIC ([15]; 24h incubation): > 500 µM
- MIC ([15]; 48h incubation): > 500 µM
- MIC ([16]; 24h incubation): > 500 µM
- MIC ([16]; 48h incubation): > 500 µM
- MIC [17]: 14.5 µM (≈ 3.91 µg/mL)
- MIC ([18]; 24h incubation): > 500 µM
- MIC ([18]; 48h incubation): > 500 µM
- MIC [19, 25]: > 370 µM
- MIC ([20]; 24h incubation): > 500 µM
- MIC ([20]; 48h incubation): > 500 µM
- MIC [21]: 463 µM (≈ 125 µg/mL)
- MIC ([22]; 24h incubation): > 500 µM
- MIC ([22]; 48h incubation): > 500 µM
